Source: patent US20240116921A1, “LACTAM (HETERO)[…] DERIVATIVES AS INHIBITORS OF ERBB2” (EnLiven Therapeutics, Inc., priority 2020, published 2024)
pIC50: −log10 of the molar value. Structures can show the parent of a compound that is named as a salt.

Columns and labels:
[1] = molecular target: T1, phosphorylated ERBB2 (pERBB2) (Homo sapiens, UniProt P04626); experiment: Detection of phosphorylated ERBB2 (pERBB2) by ELISA in BT-474 cells; assay type: cell-based; settings: four hours incubation
T1 construct: endogenous in cells; host or cells: BT-474
T1 sequence (P04626 23-1255): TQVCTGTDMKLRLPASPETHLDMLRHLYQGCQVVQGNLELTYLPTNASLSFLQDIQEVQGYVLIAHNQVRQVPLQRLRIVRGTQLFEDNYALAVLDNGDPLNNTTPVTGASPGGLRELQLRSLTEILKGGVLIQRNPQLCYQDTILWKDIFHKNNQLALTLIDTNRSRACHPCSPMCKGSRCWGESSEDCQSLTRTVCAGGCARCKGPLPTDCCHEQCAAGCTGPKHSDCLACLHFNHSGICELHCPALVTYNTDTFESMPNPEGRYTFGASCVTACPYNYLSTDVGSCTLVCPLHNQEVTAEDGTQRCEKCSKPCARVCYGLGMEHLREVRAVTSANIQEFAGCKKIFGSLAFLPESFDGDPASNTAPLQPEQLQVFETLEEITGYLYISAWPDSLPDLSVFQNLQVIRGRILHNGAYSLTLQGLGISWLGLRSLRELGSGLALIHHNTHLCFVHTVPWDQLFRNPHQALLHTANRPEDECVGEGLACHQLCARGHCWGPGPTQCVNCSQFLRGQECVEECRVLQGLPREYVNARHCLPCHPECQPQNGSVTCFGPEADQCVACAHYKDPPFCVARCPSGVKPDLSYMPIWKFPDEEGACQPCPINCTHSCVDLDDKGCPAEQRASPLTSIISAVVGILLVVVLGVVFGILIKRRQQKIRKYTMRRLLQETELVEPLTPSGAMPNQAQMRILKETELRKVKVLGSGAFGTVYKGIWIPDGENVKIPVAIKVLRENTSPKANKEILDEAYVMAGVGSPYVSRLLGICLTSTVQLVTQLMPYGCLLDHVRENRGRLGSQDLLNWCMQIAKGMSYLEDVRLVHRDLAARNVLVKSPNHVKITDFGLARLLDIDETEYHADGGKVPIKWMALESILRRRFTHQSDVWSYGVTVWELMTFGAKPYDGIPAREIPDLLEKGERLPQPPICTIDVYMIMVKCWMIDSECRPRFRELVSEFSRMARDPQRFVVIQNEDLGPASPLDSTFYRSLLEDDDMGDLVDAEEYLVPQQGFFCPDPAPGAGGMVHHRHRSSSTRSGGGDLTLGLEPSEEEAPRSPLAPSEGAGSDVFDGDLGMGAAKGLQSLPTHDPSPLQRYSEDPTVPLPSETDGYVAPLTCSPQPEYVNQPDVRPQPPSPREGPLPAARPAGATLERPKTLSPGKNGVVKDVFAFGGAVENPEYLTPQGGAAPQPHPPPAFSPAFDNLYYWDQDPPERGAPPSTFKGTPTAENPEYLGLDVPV
Procedure: BT-474 cells were seeded into a 96-well at 2.0*10^4 cells/100 μl/well.
Compounds were dissolved and serially diluted in DMSO. The compounds were then were added, mixed, and incubated for four hours at 37° C., 5% CO2. Compounds were added using four-fold dilutions at final concentrations ranging from 10 μM to 0.01 nM.
Following the four hour incubation with compounds, cell lysates were prepared.
Plates were centrifuged for 5 min at 3000 RPM, and supernatant was removed from each well. Cells were washed 3 times by resuspension in 150 μl PBS, followed by centrifugation and removal of the supernatant, as above. […] Cells were incubated with lysis buffer for 1 hour at 4° C., and then stored at −80° C.
Enzyme-linked immunosorbent assays (ELISA) were performed to measure phosphorylated ERBB2 levels. […] The next day, plates were washed with PBS+0.05% Tween20 (PBST). 150 μl of 5% BSA blocking solution was added for 1 hour at room temperature, with shaking. Plates were washed with PBST. Cell lysates were thawed and 100 μl of lysate was added to the ELISA plate. The plates were incubated for 2 hours at room temperature, with shaking. […] Plates were incubated for 1 hour at room temperature, with shaking. Plates were then washed with PBST, and 100 μl TMB substrate solution (R&D Systems, cat #DY999) was added. Plate were incubated in the dark for 20 minutes at room temperature. 50 μl of Stop solution (R&D Systems, cat #DY994) (50 μl) was added to each well and mixed.
Optical density at 450 nm was read on an EnSpire plate reader (Perkin Elmer). The remaining kinase activity by calculated using the following formula: % Relative activity=100×(A450sample−A450LC)/(A450HC−A450LC). The low and high control values (“LC” and “HC”) were generated from lysate from wells without cells or with cells treated with 0.1% DMSO, respectively.

[2] = molecular target: Ba/F3 ERBB2 A775_G776insYVMA (Homo sapiens, UniProt P04626, DUP772-775, cells depend on it); experiment: Cell viability assay, Ba/F3 ERBB2 A775_G776insYVMA; assay type: cell-based, mouse; settings: Ba/F3 ERBB2 YVMA cells, cell viability, 72 hours, CellTiter Glo; Table B5; read-out: Ba/F3 ERBB2 YVMA, IC50
Chain of Ba/F3 ERBB2 A775_G776insYVMA (P04626 with tags, fused parts or gaps DUP772-775): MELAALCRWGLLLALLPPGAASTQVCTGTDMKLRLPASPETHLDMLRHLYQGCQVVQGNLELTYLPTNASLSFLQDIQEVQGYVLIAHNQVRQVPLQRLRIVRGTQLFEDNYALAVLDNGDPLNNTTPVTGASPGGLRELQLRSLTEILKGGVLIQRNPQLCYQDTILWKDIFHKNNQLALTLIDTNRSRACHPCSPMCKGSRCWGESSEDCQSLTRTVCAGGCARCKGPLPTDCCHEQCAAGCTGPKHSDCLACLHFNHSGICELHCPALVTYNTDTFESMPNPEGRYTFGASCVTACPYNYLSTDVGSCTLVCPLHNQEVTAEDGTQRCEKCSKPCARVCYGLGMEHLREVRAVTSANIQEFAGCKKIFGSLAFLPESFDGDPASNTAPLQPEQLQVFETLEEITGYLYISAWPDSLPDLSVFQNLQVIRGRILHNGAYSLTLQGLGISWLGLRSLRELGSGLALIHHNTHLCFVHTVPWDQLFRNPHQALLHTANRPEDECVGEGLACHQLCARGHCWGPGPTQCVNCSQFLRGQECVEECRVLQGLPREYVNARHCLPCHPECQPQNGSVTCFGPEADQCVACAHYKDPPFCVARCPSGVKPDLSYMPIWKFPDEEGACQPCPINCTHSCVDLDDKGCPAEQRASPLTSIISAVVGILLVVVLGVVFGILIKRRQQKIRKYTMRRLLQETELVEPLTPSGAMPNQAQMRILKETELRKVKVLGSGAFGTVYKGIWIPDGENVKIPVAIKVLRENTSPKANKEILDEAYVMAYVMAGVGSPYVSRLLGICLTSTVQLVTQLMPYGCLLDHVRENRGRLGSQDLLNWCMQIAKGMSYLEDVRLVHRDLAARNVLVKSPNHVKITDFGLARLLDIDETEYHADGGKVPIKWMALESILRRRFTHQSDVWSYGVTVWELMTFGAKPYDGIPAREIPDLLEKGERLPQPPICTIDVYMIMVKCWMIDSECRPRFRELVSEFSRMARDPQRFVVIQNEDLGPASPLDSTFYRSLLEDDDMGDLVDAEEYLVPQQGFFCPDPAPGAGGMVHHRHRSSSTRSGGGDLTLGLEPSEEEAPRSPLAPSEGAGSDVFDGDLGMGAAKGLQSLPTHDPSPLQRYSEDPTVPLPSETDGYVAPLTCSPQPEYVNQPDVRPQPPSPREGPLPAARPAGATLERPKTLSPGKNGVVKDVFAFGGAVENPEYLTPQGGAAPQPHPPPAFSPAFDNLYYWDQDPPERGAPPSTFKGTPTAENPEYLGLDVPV
Procedure: Cells were treated with compounds, and cell viability was measured as a metric of kinase inhibition.
The Ba/F3 cell line is IL-3-dependent mouse cell line derived from the C3H mouse strain. Ba/F3 cell lines were engineered to express human ERBB2 or EGFR kinases, rendering the cells IL-3 independent. The lines were generated via retroviral transduction utilizing a Moloney murine leukemia virus (MMLV) promoter, and constructs are stably integrated into the cell genome. The sequences of the ERBB2 and EGFR genes used were NCBI Reference Sequences NM_004448.3 and NM_005228.3, respectively.
Similarly, Ba/F3 cell lines engineered to express EGFR, ERBB2, or ERBB2 mutants were grown, harvested, counted and seeded at 3000 cells per well in 96-well plates. A subset of wells contained media only (low control, “LC”).
Table B1 provides the growth media and number of cells seeded per well for the each cell line.
Plates were placed in a 37° C., 5% CO2 incubator for 72 hours. Plates were then removed from the incubator and equilibrated for 15 minutes at room temperature. 40 μl of CellTiter Glo reagent (Promega) was added to measure the relative level of metabolically active cells by quantifying intracellular ATP concentrations. Plates were incubated for 30 minutes at room temperature, and luminescence was measured. […] Graphical curves were fitted using a nonlinear regression model with a sigmoidal dose response.

[3] = molecular target: T2, phosphorylated EGFR (pEGFR) (Homo sapiens, UniProt P00533); experiment: Detection of phosphorylated EGFR (pEGFR) in EGF-stimulated A431 cells; assay type: cell-based; settings: A431 cells (10% FBS), 4 hours incubation, EGF 30 ng/mL 10 minutes, AlphaLISA
T2 construct: performed to measure phosphorylated EGFR levels using A431 cells (10% FBS); endogenous in cells; host or cells: A431
T2 sequence (P00533 25-1210): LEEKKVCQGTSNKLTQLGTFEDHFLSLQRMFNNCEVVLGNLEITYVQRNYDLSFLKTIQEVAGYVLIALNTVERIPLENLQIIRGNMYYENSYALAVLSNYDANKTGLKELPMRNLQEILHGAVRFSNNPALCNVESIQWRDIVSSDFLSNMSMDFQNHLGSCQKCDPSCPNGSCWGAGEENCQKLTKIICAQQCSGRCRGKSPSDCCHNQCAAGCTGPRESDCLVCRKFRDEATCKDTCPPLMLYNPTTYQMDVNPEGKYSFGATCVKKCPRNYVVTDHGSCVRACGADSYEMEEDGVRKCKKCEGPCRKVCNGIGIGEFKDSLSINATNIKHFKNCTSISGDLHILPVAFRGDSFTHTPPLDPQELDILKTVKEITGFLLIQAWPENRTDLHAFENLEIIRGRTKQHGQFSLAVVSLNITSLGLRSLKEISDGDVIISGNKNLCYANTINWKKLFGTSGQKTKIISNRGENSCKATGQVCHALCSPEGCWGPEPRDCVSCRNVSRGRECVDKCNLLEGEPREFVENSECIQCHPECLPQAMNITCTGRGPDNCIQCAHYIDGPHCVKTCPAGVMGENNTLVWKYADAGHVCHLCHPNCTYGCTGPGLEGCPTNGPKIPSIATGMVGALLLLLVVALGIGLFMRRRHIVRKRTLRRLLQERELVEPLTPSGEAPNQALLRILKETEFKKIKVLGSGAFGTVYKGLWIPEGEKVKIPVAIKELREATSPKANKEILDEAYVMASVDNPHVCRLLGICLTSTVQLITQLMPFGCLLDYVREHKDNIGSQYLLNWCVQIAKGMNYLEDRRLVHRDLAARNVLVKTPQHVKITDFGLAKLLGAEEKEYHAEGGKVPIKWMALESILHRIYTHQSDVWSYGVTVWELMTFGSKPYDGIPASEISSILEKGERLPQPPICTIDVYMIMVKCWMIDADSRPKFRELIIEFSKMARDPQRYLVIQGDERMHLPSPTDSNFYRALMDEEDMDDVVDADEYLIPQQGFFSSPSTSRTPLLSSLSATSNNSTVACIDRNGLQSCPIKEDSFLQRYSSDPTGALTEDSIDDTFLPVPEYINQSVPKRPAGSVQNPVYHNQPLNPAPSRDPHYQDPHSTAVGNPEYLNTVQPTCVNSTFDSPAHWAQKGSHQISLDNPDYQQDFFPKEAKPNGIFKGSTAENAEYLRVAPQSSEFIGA
Procedure: Enzyme-linked immunosorbent assays (ELISA) were performed to measure phosphorylated EGFR levels using A431 cells (10% FBS). A431 (1.0*10^4 cells/40 μl/well) cells were seeded in 384 well. Compounds were dissolved in DMSO, serially diluted in DMSO and then were added, mixed, and incubated for 4 hours at 37° C., 5% CO2. Following the 4-hours incubation, cells were stimulated for 10 minutes with EGF (Invitrogen, cat #PHG0311) at a final concentration of 30 ng/mL in the incubator. The media was aspirated and cells were lysed in 10 μL lysis buffer with protease and phosphatase inhibitors (PerkinElmer, cat #ALSU-PEGFR-A50K). The plates were placed on a shaker for 5 minutes and then incubated for 30 min at 4° C. for complete lysis. The lysate was transferred to an Optiplate (Perkin Elmer, cat #6007290).
Acceptor mix (PerkinElmer, cat #ALSU-PEGFR-A50K) was prepared just before use and 5 μL was dispensed to all the wells, followed by a 1.5-2 h incubation at room temperature in dark. The donor mix (PerkinElmer, cat #ALSU-PEGFR-A50K) was prepared under low light conditions prior to use and […] of donor mix was added to all the wells under subdued lighting or green filters. The plates were placed on a shaker for 5 min, sealed, and incubated overnight at room temperature in dark. Plates were read on the Envision (PerkinElmer) using standard AlphaLISA settings.
The percentage of inhibition on EGFR phosphorylation was calculated following equation: % Inhibition=100×(LumHC−LumSample)/(LumHC−LumLC). The low and high controls (LC/HC) are generated from lysate from wells with cells treated with DMSO or […] Staurosporine (BioAustralis, cat #BIA-S1086), […]. IC50 values were calculated by fitting the Curve using XLfit (v5.3.1.3), equation 201: Y=Bottom+(Top−Bottom)/(1+10^((Log IC50−X)*HillSlope)).

SMILES	pIC50 [1]	GI50 [2] [nM]	pIC50 [3]
CC1CN(c2cc3c(Nc4cc(F)c(Oc5ccc6c(c5)nnn6C)cc4F)ncnc3cn2)C(=O)/C1=C/CN(C)C (single isomer, unassigned) [Example S125, Enantiomer #1, (3E)-1-[4-({2,5-difluoro-4-[(1-methyl-1,2,3-benzotriazol-5-yl)oxy]phenyl}amino)pyrido[3,4-d]pyrimidin-6-yl]-3-[2-(dimethylamino)ethylidene]-4-methylpyrrolidin-2-one]	6.15	> 500	< 5.00
CC1CN(c2cc3c(Nc4cc(F)c(Oc5ccc6c(c5)nnn6C)cc4F)ncnc3cn2)C(=O)/C1=C/CN(C)C (single isomer, unassigned) [Example S125, Enantiomer #2, (3E)-1-[4-({2,5-difluoro-4-[(1-methyl-1,2,3-benzotriazol-5-yl)oxy]phenyl}amino)pyrido[3,4-d]pyrimidin-6-yl]-3-[2-(dimethylamino)ethylidene]-4-methylpyrrolidin-2-one]	7.12	27	5.64
Cc1cc(Nc2ncnc3ccc(N4CC(C)C(=CCN(C)C)C4=O)nc23)ccc1Oc1ccc2c(c1)nnn2C (single isomer, unassigned) [Example S126, Enantiomer #1, 3-[2-(dimethylamino)ethylidene]-4-methyl-1-[4-({3-methyl-4-[(1-methyl-1,2,3-benzotriazol-5-yl)oxy]phenyl}amino)pyrido[3,2-d]pyrimidin-6-yl]pyrrolidin-2-one]	7.39	2.04	6.52
Cc1cc(Nc2ncnc3ccc(N4CC(C)C(=CCN(C)C)C4=O)nc23)ccc1Oc1ccc2c(c1)nnn2C (single isomer, unassigned) [Example S126, Enantiomer #2, 3-[2-(dimethylamino)ethylidene]-4-methyl-1-[4-({3-methyl-4-[(1-methyl-1,2,3-benzotriazol-5-yl)oxy]phenyl}amino)pyrido[3,2-d]pyrimidin-6-yl]pyrrolidin-2-one]	6.40	205	< 5.00
CC1CN(c2ccc3ncnc(Nc4ccc(Oc5ccn6ncnc6c5)c(F)c4)c3n2)C(=O)/C1=C/CN(C)C (single isomer, unassigned) [Example S127, Enantiomer #1, (E)-1-(4-((4-([1,2,4]triazolo[1,5-a]pyridin-7-yloxy)-3-fluorophenyl)amino)pyrido[3,2-d]pyrimidin-6-yl)-3-(2-(dimethylamino)ethylidene)-4-methylpyrrolidin-2-one]	7.85	2.88	6.24
CC1CN(c2ccc3ncnc(Nc4ccc(Oc5ccn6ncnc6c5)c(F)c4)c3n2)C(=O)/C1=C/CN(C)C (single isomer, unassigned) [Example S127, Enantiomer #2, (E)-1-(4-((4-([1,2,4]triazolo[1,5-a]pyridin-7-yloxy)-3-fluorophenyl)amino)pyrido[3,2-d]pyrimidin-6-yl)-3-(2-(dimethylamino)ethylidene)-4-methylpyrrolidin-2-one]	6.84	418	< 5.00
C=C1C(=O)N(c2cc3c(Nc4ccc(Oc5ccn6ncnc6c5)c(C)c4)ncnc3cn2)C2CC12 (single isomer, unassigned; enantiomer 1) [Example S40, Enantiomer # 1, 2-{4-[(3-methyl-4-{[1,2,4]triazolo[1,5-a]pyridin-7-yloxy}phenyl)amino]pyrido[3,4-d]pyrimidin-6-yl}-4-methylidene-2-azabicyclo[3.1.0]hexan-3-one Enantiomer 1]	8.00	3.47	6.99
Cc1cc(Nc2ncnc3ccc(N4CC(C)/C(=C\CN(C)C)C4=O)nc23)ccc1Oc1ccc2c(c1)ncn2C (single isomer, unassigned; enantiomer 1) [Example S58, Enantiomer # 1, (3E)-3-[2-(dimethylamino)ethylidene]-4-methyl-1-[4-({3-methyl-4-[(1-methyl-1,3-benzodiazol-5-yl)oxy]phenyl}amino)pyrido[3,2-d]pyrimidin-6-yl]pyrrolidin-2-one hydrochloride Enantiomer 1]	7.53	1.46	6.58
C=C1C(=O)N(c2cc3c(Nc4ccc(Oc5ccn6ncnc6c5)c(C)c4)ncnc3cn2)C2CC12 (single isomer, unassigned; enantiomer 2) [Example S40, Enantiomer # 2, 2-{4-[(3-methyl-4-{[1,2,4]triazolo[1,5-a]pyridin-7-yloxy}phenyl)amino]pyrido[3,4-d]pyrimidin-6-yl}-4-methylidene-2-azabicyclo[3.1.0]hexan-3-one Enantiomer 2]	7.45	68.1	5.19
Cc1cc(Nc2ncnc3ccc(N4CC(C)/C(=C\CN(C)C)C4=O)nc23)ccc1Oc1ccc2c(c1)ncn2C (single isomer, unassigned; enantiomer 2) [Example S58, Enantiomer # 2, (3E)-3-[2-(dimethylamino)ethylidene]-4-methyl-1-[4-({3-methyl-4-[(1-methyl-1,3-benzodiazol-5-yl)oxy]phenyl}amino)pyrido[3,2-d]pyrimidin-6-yl]pyrrolidin-2-one hydrochloride Enantiomer 2]	7.35	13.3	< 5.00
C=C1CCN(c2cc3c(Nc4ccc(Oc5ccn6ncnc6c5)c(Cl)c4)ncnc3cc2OCCN(C)C)C1=O [Compound 25, 1-{4-[(3-chloro-4-{[1,2,4]triazolo[1,5-a]pyridin-7-yloxy}phenyl)amino]-7-[2-(dimethylamino)ethoxy]quinazolin-6-yl}-3-methylidenepyrrolidin-2-one]	5.92	> 500	< 5.00
Cc1cc(Nc2ncnc3ccc(N4CC/C(=C\CCN(C)C)C4=O)cc23)ccc1Oc1ccn2ncnc2c1 [Compound 26, (3E)-3-[3-(dimethylamino)propylidene]-1-{4-[(3-methyl-4-{[1,2,4]triazolo[1,5-a]pyridin-7-yloxy}phenyl)amino]quinazolin-6-yl}pyrrolidin-2-one]	7.93	8.61	5.84
